Test results as given in patent US20250206722A1, “SMALL MOLECULE INHIBITORS OF TEA DOMAIN FAMILY MEMBERS” (The Scripps Research Institute, priority 2022, published 2025).

What was measured:
Format in all cases: cell-based
NCI-H226 cells [1] = experiment: NCI-H226 proliferation assay (Wuxi AppTec); settings: Homo sapiens, 168 h, 7 days, CellTiter-Glo, top dose 10, 3-fold dilution, 9 doses
Procedure: […] Proliferation Assay (From Wuxi AppTec CO.):
Day −1: Seeding cells • (1) Equilibrate cell culture medium to 37° C. • (2) Remove and discard the culture medium. • (3) Briefly rinse the cell layer with PBS to remove all traces of serum that contains […]. • (4) Add 2-3 mL of Trypsin-EDTA solution to flask and observe cells under an inverted microscope until cell layer is dispersed. • (5) Add 6-8 mL of growth medium to terminate the digestion of Trypsin/EDTA. • (6) Centrifuge the mixture (Trypsin EDTA and the growth medium) at 1000 rpm for 5 mins. • (7) Discard the supernatant, suspend the cell precipitation with the fresh growth medium, then take 1 mL the cell suspension to count cells with Vi-cell XR cell viability analyzer. • (8) Adjust the cell density to 500 cells/well for 384-well plates. • (9) Add 50 µL/well volume cell suspension to the assay plate. • (10) Add […] media to the control columns. • (11) Incubate the plate at 37° C., 5% CO2 for overnight. Day 0: Compounds treatment • (1) Add cpds to each well by Tecan HP D300E. The top dose is […], 3-fold dilution and 9 doses. DMSO final concentration will be normalized to 0.2%. • (2) Incubate the assay plate at 37° C., 5% CO2 for 7 days. Day 7: Plate read • (1) Equilibrate the assay plate to the room temperature for nearly 30 minutes. • (2) Add […] CellTiter-Glo reagent to each well and shake the plate for 1 min, incubate 10 min and keep them from light. • (3) Detect the plate by EnVision. Data analysis:
Max: Average of the DMSO group Min: Average of medium group.

NCI-H226 cells [2] = experiment: NCI-H226 proliferation assay (in house); settings: Homo sapiens, 120 h, 5 days, Cell TiterGlo, 20-point 1:2 dilution from 20 μM
In short: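 Cells in RPMI 1640 + 10% FBS, 500 per well, dosed after 24 h with 20-point 1:2 dilutions from 20 μM (final), in triplicate. After 5 days at 37 °C, 5% CO2, viability read by CellTiter-Glo luminescence.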

[3] = test system: transcriptional activity of TEADs; experiment: TEAD reporter assay (MCF7 TEAD-LUC reporter cells); settings: Homo sapiens, 24 hours, BrightGlo luminescence
In short: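 MCF7 TEAD-LUC reporter cells were plated at 5,000/well and after 24 h treated with a 20-point 1:2 series from 20 μM final, in triplicate. Luciferase was read by BrightGlo luminescence after 24 h exposure at 37 °C.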

Row | Structure (SMILES) | IC50 (NCI-H226 cells [1]) | IC50 (NCI-H226 cells [2]) | IC50 [3]
1 | C=C(F)C(=O)N1CCC(c2nc(C)cnc2Oc2ccc(C(F)(F)F)nc2)CC1 [Example 115, 2-fluoro-1-(4-(6-methyl-3-((6-(trifluoromethyl)pyridin-3-yl)oxy)pyrazin-2-yl)piperidin-1-yl)prop-2-en-1-one] | 0.041 µM | 0.074 µM | –
2 | C=CC(=O)N1CCN(c2nc(C)c(C)nc2Nc2ccc(C(F)(F)F)nc2)CC1 [Example 113, 1-(4-(5,6-dimethyl-3-((6-(trifluoromethyl)pyridin-3-yl)amino)pyrazin-2-yl)piperazin-1-yl)prop-2-en-1-one] | 0.032 µM | 0.04 µM | 2.7 nM
3 | C=CC(=O)N1CC=C(c2nccnc2Nc2cnc(C(F)(F)F)nc2)CC1 [Example 59, 1-(4-(3-((2-(trifluoromethyl)pyrimidin-5-yl)amino)pyrazin-2-yl)-3,6-dihydropyridin-1(2H)-yl)prop-2-en-1-one] | 0.1 µM | – | –
4 | C=CC(=O)N1CCN(c2nccnc2Nc2ccc(OC(F)F)cc2)CC1 [Example 35, 1-(4-(3-((4-(difluoromethoxy)phenyl)amino)pyrazin-2-yl)piperazin-1-yl)prop-2-en-1-one] | 0.028 µM | 0.084 µM | 0.8 nM
5 | C=CC(=O)N1CC=C(c2nccnc2Nc2ccc(OC(F)(F)F)nc2)CC1 [Example 57, 1-(4-(3-((6-(trifluoromethoxy)pyridin-3-yl)amino)pyrazin-2-yl)-3,6-dihydropyridin-1(2H)-yl)prop-2-en-1-one] | 0.036 µM | – | –
6 | C=CC(=O)N1CCN(c2nccnc2NC2C3CC2C3C(F)(F)F)CC1 (stereo not drawn) [Example 67, 1-(4-(3-((4-(trifluoromethyl)bicyclo[1.1.1]pentan-2-yl)amino)pyrazin-2-yl)piperazin-1-yl)prop-2-en-1-one] | 1.45 µM | 0.079 µM | 2.9 nM
7 | C=CC(=O)N1CCN(c2nccnc2OC2CCC(C(F)(F)F)CC2)CC1 (stereo not drawn) [Example 94, 1-(4-(3-((4-(trifluoromethyl)cyclohexyl)oxy)pyrazin-2-yl)piperazin-1-yl)prop-2-en-1-one] | 0.017 µM | 0.018 µM | 0.84 nM
8 | C=CC(=O)N1CCC(n2nccc2C(=O)c2ccc(C(F)(F)F)cc2)CC1 [Example 164, 1-(4-(5-(4-(trifluoromethyl)benzoyl)-1H-pyrazol-1-yl)piperidin-1-yl)prop-2-en-1-one] | 0.045 µM | – | 0.4 nM
9 | C=CC(=O)N1CCN(c2ccnnc2Nc2ccc(C(F)(F)F)nc2)CC1 [Example 121, 1-(4-(3-((6-(trifluoromethyl)pyridin-3-yl)amino)pyridazin-4-yl)piperazin-1-yl)prop-2-en-1-one] | 1.4 µM | – | –
10 | C=CC(=O)N1CCC(c2nccnc2Oc2cnc(C(F)(F)F)nc2)CC1 [Example 91, 1-(4-(3-((2-(trifluoromethyl)pyrimidin-5-yl)oxy)pyrazin-2-yl)piperidin-1-yl)prop-2-en-1-one] | 0.042 µM | 0.075 µM | –
11 | C=CC(=O)N1CCN(c2nccnc2N2CC(c3ccc(F)cc3)C2)CC1 [Example 107, 1-(4-(3-(3-(4-fluorophenyl)azetidin-1-yl)pyrazin-2-yl)piperazin-1-yl)prop-2-en-1-one] | 0.049 µM | 0.018 µM | 0.7 nM
12 | C=CC(=O)N1CC=C(c2cnc(C)nc2Oc2ccc(C(F)(F)F)nc2)CC1 [Example 129, 1-(4-(2-methyl-4-((6-(trifluoromethyl)pyridin-3-yl)oxy)pyrimidin-5-yl)-3,6-dihydropyridin-1(2H)-yl)prop-2-en-1-one] | 0.137 µM | 0.104 µM | 1.2 nM
13 | N#C/C=C/C(=O)N1CCN(c2nccnc2Nc2ccc(C(F)(F)F)cc2)CC1 [Example 181, (E)-4-oxo-4-(4-(3-((4-(trifluoromethyl)phenyl)amino)pyrazin-2-yl)piperazin-1-yl)but-2-enenitrile] | 0.026 µM | 0.034 µM | 0.44 nM
14 | C=C(F)C(=O)N1CC=C(c2nccnc2Nc2cnc(C(F)(F)F)nc2)CC1 [Example 60, 2-fluoro-1-(4-(3-((2-(trifluoromethyl)pyrimidin-5-yl)amino)pyrazin-2-yl)-3,6-dihydropyridin-1(2H)-yl)prop-2-en-1-one] | 1.31 µM | – | –
15 | C=C(F)C(=O)N1CCC(c2nccnc2Oc2cnc(C(F)(F)F)nc2)CC1 [Example 92, 2-fluoro-1-(4-(3-((2-(trifluoromethyl)pyrimidin-5-yl)oxy)pyrazin-2-yl)piperidin-1-yl)prop-2-en-1-one] | 1.12 µM | 5.64 µM | –
16 | C=CC(=O)N1CC=C(c2cccnc2Nc2ccc(OC(F)(F)F)nc2)CC1 [Example 147, 1-(2-((6-(trifluoromethoxy)pyridin-3-yl)amino)-3′,6′-dihydro-[3,4′-bipyridin]-1′(2′H)-yl)prop-2-en-1-one] | 0.149 µM | – | 2.3 nM
17 | C=CC(=O)N1CCN(c2nccnc2Nc2ccc(C(F)(F)F)c(OC)c2)CC1 [Example 37, 1-(4-(3-((3-methoxy-4-(trifluoromethyl)phenyl)amino)pyrazin-2-yl)piperazin-1-yl)prop-2-en-1-one] | 0.078 µM | – | –
18 | C=C(F)C(=O)N1CCC(c2nccnc2Oc2ccc(C(F)(F)F)cn2)CC1 [Example 76, 2-fluoro-1-(4-(3-((5-(trifluoromethyl)pyridin-2-yl)oxy)pyrazin-2-yl)piperidin-1-yl)prop-2-en-1-one] | 0.104 µM | 0.424 µM | –
19 | C=CC(=O)N1CCC(O)(c2nccnc2Oc2ccc(C(F)(F)F)nc2)CC1 [Example 83, 1-(4-hydroxy-4-(3-((6-(trifluoromethyl)pyridin-3-yl)oxy)pyrazin-2-yl)piperidin-1-yl)prop-2-en-1-one] | 0.263 µM | – | –
20 | C=CC(=O)N1CCN(c2nccnc2Nc2ccc(C#N)cc2)CC1 [Example 38, 4-((3-(4-acryloylpiperazin-1-yl)pyrazin-2-yl)amino)benzonitrile] | 0.42 µM | – | –

More lines, in order of falling IC50 (NCI-H226 cells [1]), values ahead:

Row | IC50 (NCI-H226 cells [1]) | IC50 (NCI-H226 cells [2]) | IC50 [3] | Structure (SMILES)
21 | 0.452 µM | 1.63 µM | 0.6 nM | C=C(F)C(=O)N1CCN(c2nccnc2Nc2ccc(C(F)(F)F)nc2)CC1 [Example 46, 2-fluoro-1-(4-(3-((6-(trifluoromethyl)pyridin-3-yl)amino)pyrazin-2-yl)piperazin-1-yl)prop-2-en-1-one]
22 | 0.339 µM | 0.364 µM | 19.1 nM | C=CC(=O)N1CCC(c2cncnc2Oc2ccc(C(F)(F)F)nc2)CC1 [Example 126, 1-(4-(4-((6-(trifluoromethyl)pyridin-3-yl)oxy)pyrimidin-5-yl)piperidin-1-yl)prop-2-en-1-one]
23 | 0.283 µM | – | – | C=C(F)C(=O)N1CC=C(c2nccnc2Nc2ccc(OC(F)(F)F)nc2)CC1 [Example 58, 2-fluoro-1-(4-(3-((6-(trifluoromethoxy)pyridin-3-yl)amino)pyrazin-2-yl)-3,6-dihydropyridin-1(2H)-yl)prop-2-en-1-one]
24 | 0.205 µM | – | – | C=CC(=O)N1CCN(c2ccnnc2Nc2ccc(C(F)(F)F)cn2)CC1 [Example 120, 1-(4-(3-((5-(trifluoromethyl)pyridin-2-yl)amino)pyridazin-4-yl)piperazin-1-yl)prop-2-en-1-one]
25 | 0.051 µM | 0.022 µM | 1.8 nM | C=CC(=O)N1CCC(c2cccnc2Oc2cnc(C(F)(F)F)nc2)CC1 [Example 159, 1-(4-(2-((2-(trifluoromethyl)pyrimidin-5-yl)oxy)pyridin-3-yl)piperidin-1-yl)prop-2-en-1-one]
26 | 0.047 µM | 0.025 µM | 1.4 nM | C=CC(=O)N1CCN(c2nccnc2Oc2cnc(C(F)(F)F)nc2)CC1 [Example 87, 1-(4-(3-((2-(trifluoromethyl)pyrimidin-5-yl)oxy)pyrazin-2-yl)piperazin-1-yl)prop-2-en-1-one]
27 | 0.042 µM | 0.012 µM | 3.2 nM | C=CC(=O)N1CCN(c2ccnnc2Nc2ccc(C(F)(F)F)cc2)CC1 [Example 119, 1-(4-(3-((4-(trifluoromethyl)phenyl)amino)pyridazin-4-yl)piperazin-1-yl)prop-2-en-1-one]
28 | 0.02 µM | 0.012 µM | 1.4 nM | C=CC(=O)N1CCC(c2nccnc2Nc2ccc(C(F)(F)F)cn2)CC1 [Example 44, 1-(4-(3-((5-(trifluoromethyl)pyridin-2-yl)amino)pyrazin-2-yl)piperidin-1-yl)prop-2-en-1-one]
29 | 0.017 µM | 0.029 µM | 2.4 nM | C=CC(=O)N1CC=C(c2cccnc2Nc2ccc(C(F)(F)F)nc2)CC1 [Example 145, 1-(2-((6-(trifluoromethyl)pyridin-3-yl)amino)-3′,6′-dihydro-[3,4′-bipyridin]-1′(2′H)-yl)prop-2-en-1-one]
